# Measured values: patent US20130202545A1, “Stablised Polyphenol Derivatives, Process for Their Manufacture, and Uses Thereof” (BERKEM S.A., priority 2010, published 2013)
# Tested on: explants of human skin
# Experiment: Anti-lipoperoxidant activity: MDA level in UV-irradiated human skin explants
# Format: cell-based
# Source text: Oxygenated free radicals are produced in large quantities on the skin as a result of UV irradiation. These free radical species cause various forms of degradation to cellular components, and in particular, to membrane lipids. The latter are transformed into various hydroperoxide derivatives, such as for example malonyldialdehyde (MDA), and 4-hydrononenal (4-HNE). The determination of the amount of MDA in skin tissues is thus a good indicator of the production of oxygenated free radicals and peroxidation of membrane lipids. A comparison of the levels of MDA between treated and non-treated subjects therefore indicates whether the product applied has anti-lipoperoxidant activity. The model used for the experiments is one of human skin explants which are maintained in survival mode at 37° C., a humid atmosphere and 5% CO2. The skin explants are divided into three positive control batch treated with vitamin E (2 mg per explant) The products to be tested are dissolved at a concentration of 2% Vaseline oil. This solution is applied topically to the skin explants at a rate of one 30 micro-litre application per explant per day for 5 days. […] Levels of MDA (expressed in pmoles of MDA/ml of medium) in the explants are measured for both the treated and untreated batches. […] Antiradical activity was determined using the same method described in example 17. […]
substance,measurement,setting,value
Vitamin E,% Reduction in MDA,"Example 21, etherified (silyl ether) OPC, same method as the earlier MDA example",11%
same,% Reduction in MDA,"products 2% in Vaseline oil, 30 micro-litre per explant per day for 5 days (vitamin E 2 mg per explant), UV A and UV B on day 5, treated vs untreated explants",11%
